pIC50: −log10 of the molar value.
What was measured:
C-RAF = biological target: T1, C-RAF (Homo sapiens, UniProt P04049, Y340E/Y341E); assay: In vitro Raf activity determination (Alpha Screen, biotinylated kinase-dead MEK1 substrate), C-Raf; format: biochemical; details: c-Raf approximately 4 nM; ATP 1 μM; pre-incubation 60 minutes; reaction 1 hour at room temperature
T1 construct: His tag (implied by nickel chromatography) (cleaved yes); StrepII tag (cleaved yes); made in house; host or cells: Sf9 insect cells (baculovirus), CRAF and h14-3-3 zeta co-expressed; MEK1 substrate from E. coli
T1 sequence (P04049 whole entry Y340E/Y341E): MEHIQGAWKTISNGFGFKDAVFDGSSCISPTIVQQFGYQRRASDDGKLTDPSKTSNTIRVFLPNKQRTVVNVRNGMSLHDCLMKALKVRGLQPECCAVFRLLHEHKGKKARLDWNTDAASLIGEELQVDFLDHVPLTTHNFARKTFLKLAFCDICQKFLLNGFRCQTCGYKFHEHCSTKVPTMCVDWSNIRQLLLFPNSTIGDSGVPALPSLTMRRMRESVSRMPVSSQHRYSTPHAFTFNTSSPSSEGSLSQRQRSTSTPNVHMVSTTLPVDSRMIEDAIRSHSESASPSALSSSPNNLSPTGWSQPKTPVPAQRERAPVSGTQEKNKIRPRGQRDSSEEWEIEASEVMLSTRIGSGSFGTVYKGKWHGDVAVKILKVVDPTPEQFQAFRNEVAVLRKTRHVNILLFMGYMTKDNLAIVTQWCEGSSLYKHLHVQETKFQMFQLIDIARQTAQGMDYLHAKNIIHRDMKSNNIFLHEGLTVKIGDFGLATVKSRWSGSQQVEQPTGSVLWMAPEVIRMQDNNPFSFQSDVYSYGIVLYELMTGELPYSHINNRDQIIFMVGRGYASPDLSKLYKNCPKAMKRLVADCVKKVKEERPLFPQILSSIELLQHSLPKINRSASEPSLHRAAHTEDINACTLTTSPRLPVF
T1 sequence (P63104 whole entry partner): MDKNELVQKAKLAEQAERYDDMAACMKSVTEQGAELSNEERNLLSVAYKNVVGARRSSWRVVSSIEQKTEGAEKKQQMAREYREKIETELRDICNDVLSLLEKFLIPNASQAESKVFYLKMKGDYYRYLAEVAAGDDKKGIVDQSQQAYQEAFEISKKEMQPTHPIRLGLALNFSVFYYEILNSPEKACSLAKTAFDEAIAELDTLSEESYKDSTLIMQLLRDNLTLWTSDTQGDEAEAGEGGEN
Outline: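 AlphaScreen read-out of MEK phosphorylation using an anti-phospho-MEK1/2 antibody after a 1 hour room-temperature reaction at 1 μM ATP. Enzyme: approximately 4 nM Sf9-expressed full-length activated C-Raf (Y340E/Y341E, with 14-3-3ζ) on approximately 10 nM biotinylated K97R MEK1, after 60 min compound preincubation. IC50 by non-linear fit.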

b-Raf (V600E) = biological target: T2, b-Raf (V600E) (Homo sapiens, UniProt P15056, V600E); assay: In vitro Raf activity determination (Alpha Screen, biotinylated kinase-dead MEK1 substrate), B-Raf; format: biochemical; details: b-Raf (V600E) approximately 4 pM; ATP 10 μM; pre-incubation 60 minutes; reaction 3 hours at room temperature
T2 construct: made in house
T2 sequence (P15056 whole entry V600E): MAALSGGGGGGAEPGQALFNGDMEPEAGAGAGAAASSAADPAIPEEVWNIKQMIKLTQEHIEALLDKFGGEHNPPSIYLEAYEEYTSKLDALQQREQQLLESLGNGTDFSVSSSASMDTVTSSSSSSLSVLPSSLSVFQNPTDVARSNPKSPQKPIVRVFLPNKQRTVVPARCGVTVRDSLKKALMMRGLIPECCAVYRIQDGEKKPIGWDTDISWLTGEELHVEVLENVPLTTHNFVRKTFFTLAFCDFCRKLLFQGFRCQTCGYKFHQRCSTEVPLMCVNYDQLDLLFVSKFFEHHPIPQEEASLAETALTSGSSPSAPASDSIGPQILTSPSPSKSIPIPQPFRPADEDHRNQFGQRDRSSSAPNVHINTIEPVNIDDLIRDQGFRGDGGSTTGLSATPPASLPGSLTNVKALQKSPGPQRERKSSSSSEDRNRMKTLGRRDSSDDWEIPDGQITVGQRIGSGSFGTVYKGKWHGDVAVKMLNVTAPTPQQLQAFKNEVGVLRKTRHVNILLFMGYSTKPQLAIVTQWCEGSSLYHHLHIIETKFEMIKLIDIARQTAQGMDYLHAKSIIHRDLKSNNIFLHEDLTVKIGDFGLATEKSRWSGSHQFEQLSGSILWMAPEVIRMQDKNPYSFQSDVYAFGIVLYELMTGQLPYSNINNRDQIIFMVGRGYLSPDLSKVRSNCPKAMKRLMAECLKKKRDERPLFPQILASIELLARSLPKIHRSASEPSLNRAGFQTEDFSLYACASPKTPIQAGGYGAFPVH
Outline: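 IC50 from non-linear regression of AlphaScreen phospho-MEK signal (anti-p-MEK1/2 antibody). b-Raf(V600E), about 4 pM, phosphorylated ~10 nM biotinylated K97R MEK1 with 10 μM ATP for 3 h at room temperature after 60 min compound pre-incubation; buffer pH 7.5 Tris, 15 mM MgCl2, 1 mM DTT.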

Row | pIC50 (C-RAF) | pIC50 (b-Raf (V600E)) | Structure (SMILES)
1 | 9.65 | 9.17 | Cc1ccc(NC(=O)c2ccnc(C(C)(C)F)c2)cc1-c1cnc(N2CCNCC2)c(C#N)c1 [Example 164, N-(3-(5-cyano-6-(piperazin-1-yl)pyridin-3-yl)-4-methylphenyl)-2-(2-fluoropropan-2-yl)isonicotinamide]
2 | 9.45 | 8.91 | Cc1ccc(NC(=O)c2ccnc(C(C)(C)O)c2)cc1-c1cnc(N2CCOCC2)c(C#N)c1 [Example 165, N-(3-(5-cyano-6-morpholinopyridin-3-yl)-4-methylphenyl)-2-(2-hydroxypropan-2-yl)isonicotinamide]
3 | 8.16 | 7.48 | Cc1ncc(NC(=O)c2ccnc(C(C)(C)O)c2)cc1-c1cnc(C2CCOCC2)c(C#N)c1 [Example 167, N-(5′-cyano-2-methyl-6′-(tetrahydro-2H-pyran-4-yl)-[3,3′-bipyridin]-5-yl)-2-(2-hydroxypropan-2-yl)isonicotinamide]
4 | 9.31 | 8.84 | Cc1ccc(NC(=O)c2ccnc(C(C)(C)O)c2)cc1-c1cnc(NC2CCOCC2)c(C#N)c1 [Example 168, N-(3-(5-cyano-6-((tetrahydro-2H-pyran-4-yl)amino)pyridin-3-yl)-4-methylphenyl)-2-(2-hydroxypropan-2-yl)isonicotinamide]
5 | 9.81 | 9.29 | Cc1ccc(NC(=O)c2ccnc(C(F)F)c2)cc1-c1cnc(NC2CCOCC2)c(C#N)c1 [Example 169, N-(3-(5-cyano-6-((tetrahydro-2H-pyran-4-yl)amino)pyridin-3-yl)-4-methylphenyl)-2-(difluoromethyl) isonicotinamide]
6 | 8.50 | 7.92 | Cc1ncc(NC(=O)c2ccnc(C(C)(C)O)c2)cc1-c1cnc(NC2CCOCC2)c(C#N)c1 [Example 170, N-(5′-cyano-2-methyl-6′-((tetrahydro-2H-pyran-4-yl)amino)-[3,3′-bipyridin]-5-yl)-2-(2-hydroxypropan-2-yl)isonicotinamide]
7 | 9.03 | 8.38 | Cc1ncc(NC(=O)c2ccnc(C(F)F)c2)cc1-c1cnc(NC2CCOCC2)c(C#N)c1 [Example 171, N-(5′-cyano-2-methyl-6′-((tetrahydro-2H-pyran-4-yl)amino)-[3,3′-bipyridin]-5-yl)-2-(difluoromethyl) isonicotinamide]
8 | 9.45 | 8.96 | Cc1ncc(NC(=O)c2cccc(C(F)F)c2)cc1-c1cnc(NC2CCOCC2)c(C#N)c1 [Example 172, N-(5′-cyano-2-methyl-6′-((tetrahydro-2H-pyran-4-yl)amino)-[3,3′-bipyridin]-5-yl)-3-(difluoromethyl) benzamide]
9 | 9.32 | 8.79 | Cc1ncc(NC(=O)c2ccnc(C(F)(F)F)c2)cc1-c1cnc(NC2CCOCC2)c(C#N)c1 [Example 173, N-(5′-cyano-2-methyl-6′-((tetrahydro-2H-pyran-4-yl)amino)-[3,3′-bipyridin]-5-yl)-2-(trifluoromethyl) isonicotinamide]
10 | 9.75 | 9.24 | Cc1ccc(NC(=O)c2cnnc(C(F)(F)F)c2)cc1-c1cnc(NC2CCOCC2)c(C#N)c1 [Example 174, N-(3-(5-cyano-6-((tetrahydro-2H-pyran-4-yl)amino)pyridin-3-yl)-4-methylphenyl)-6-(trifluoromethyl) pyridazine-4-carboxamide]
11 | 8.90 | 8.32 | Cc1ncc(NC(=O)c2cnnc(C(F)(F)F)c2)cc1-c1cnc(NC2CCOCC2)c(C#N)c1 [Example 175, N-(5′-cyano-2-methyl-6′-((tetrahydro-2H-pyran-4-yl)amino)-[3,3′-bipyridin]-5-yl)-6-(trifluoromethyl) pyridazine-4-carboxamide]
12 | 9.23 | 8.39 | COCCNc1ncc(-c2cc(NC(=O)c3cnnc(C(F)(F)F)c3)ccc2C)cc1C#N [Example 179, N-(3-(5-cyano-6-((2-methoxyethyl)amino)pyridin-3-yl)-4-methylphenyl)-6-(trifluoromethyl) pyridazine-4-carboxamide]
13 | 7.78 | 6.95 | Cc1ncc(NC(=O)c2cnnc(C(F)(F)F)c2)cc1-c1cnc(N2CC(C)(O)C2)c(C#N)c1 [Example 181, N-(5′-cyano-6′-(3-hydroxy-3-methylazetidin-1-yl)-2-methyl-[3,3′-bypyridin]-5-yl)-6-(trifluoromethyl) pyridazine-4-carboxamide]

Second part, the compound before the results:

Row | Structure (SMILES) | pIC50 (C-RAF) | pIC50 (b-Raf (V600E))
14 | Cc1ccc(NC(=O)c2cccc(C(F)F)c2)cc1-c1cnc(N2CCNCC2)c(C#N)c1 [Example 163, N-(3-(5-cyano-6-(piperazin-1-yl)pyridin-3-yl)-4-methylphenyl)-3-(difluoromethyl) benzamide] | 9.90 | 9.05
15 | Cc1ncc(NC(=O)c2ccnc(C(C)(C)O)c2)cc1-c1cnc(N2CCOCC2)c(C#N)c1 [Example 166, N-(5′-cyano-2-methyl-6′-morpholino-[3,3′-bipyridin]-5-yl)-2-(2-hydroxypropan-2-yl)isonicotinamide] | 8.80 | 8.16
16 | COCCNc1ncc(-c2cc(NC(=O)c3ccnc(C(C)(C)C#N)c3)ccc2C)cc1C#N [Example 176, N-(3-(5-cyano-6-((2-methoxyethyl)amino)pyridin-3-yl)-4-methylphenyl)-2-(2-cyanopropan-2-yl)isonicotinamide] | 9.40 | 8.80
17 | COCCNc1ncc(-c2cc(NC(=O)c3ccnc(C4(C#N)CC4)c3)ccc2C)cc1C#N [Example 177, N-(3-(5-cyano-6-((2-methoxyethyl)amino)pyridin-3-yl)-4-methylphenyl)-2-(1-cyanocyclopropyl) isonicotinamide] | 9.77 | 9.03
18 | COCCNc1ncc(-c2cc(NC(=O)c3ccnc(C(F)F)c3)ccc2C)cc1C#N [Example 178, N-(3-(5-cyano-6-((2-methoxyethyl)amino)pyridin-3-yl)-4-methylphenyl)-2-(difluoromethyl) isonicotinamide] | 9.72 | 8.82
19 | Cc1ncc(NC(=O)c2ccnc(C(F)(F)F)c2)cc1-c1cnc(N2CC(C)(O)C2)c(C#N)c1 [Example 180, N-(5′-cyano-6′-(3-hydroxy-3-methylazetidin-1-yl)-2-methyl-[3,3′-bipyridin]-5-yl)-2-(trifluoromethyl) isonicotinamide] | 8.88 | 8.07
20 | Cc1ncc(NC(=O)c2ccnc(C(F)F)c2)cc1-c1cnc(N2CC(C)(O)C2)c(C#N)c1 [Example 182, N-(5′-cyano-6′-(3-hydroxy-3-methylazetidin-1-yl)-2-methyl-[3,3′-bipyridin]-5-yl)-2-(difluoromethyl) isonicotinamide] | 8.13 | 7.23
21 | Cc1ncc(NC(=O)c2ccnc(C(C)(F)F)c2)cc1-c1cnc(N2CC(C)(O)C2)c(C#N)c1 [Example 183, N-(5′-cyano-6′-(3-hydroxy-3-methylazetidin-1-yl)-2-methyl-[3,3′-bipyridin]-5-yl)-2-(1,1-difluoroethyl) isonicotinamide] | 9.08 | 8.24
22 | Cc1ncc(NC(=O)c2cccc(C(F)F)c2)cc1-c1cnc(N2CC(C)(O)C2)c(C#N)c1 [Example 184, N-(5′-cyano-6′-(3-hydroxy-3-methylazetidin-1-yl)-2-methyl-[3,3′-bipyridin]-5-yl)-3-(difluoromethyl) benzamide] | 8.94 | 8.10
23 | Cc1ncc(NC(=O)c2ccnc(C(C)(C)O)c2)cc1-c1cnc(N2CC(C)(O)C2)c(C#N)c1 [Example 185, N-(5′-cyano-6′-(3-hydroxy-3-methylazetidin-1-yl)-2-methyl-[3,3′-bipyridin]-5-yl)-2-(2-hydroxypropan-2-yl)isonicotinamide] | 7.96 | 7.21
24 | Cc1ncc(NC(=O)c2cnnc(C(C)(C)C#N)c2)cc1-c1cnc(N2CC(C)(O)C2)c(C#N)c1 [Example 186, N-(5′-cyano-6′-(3-hydroxy-3-methylazetidin-1-yl)-2-methyl-[3,3′-bipyridin]-5-yl)-6-(2-cyanopropan-2-yl)pyridazine-4-carboxamide] | 7.99 | 7.28
25 | Cc1ncc(NC(=O)c2cccc(S(C)(=O)=O)c2)cc1-c1cnc(N2CC(C)(O)C2)c(C#N)c1 [Example 187, N-(5′-cyano-6′-(3-hydroxy-3-methylazetidin-1-yl)-2-methyl-[3,3′-bipyridin]-5-yl)-3-(methylsulfonyl) benzamide] | 8.38 | 7.57
26 | Cc1ncc(NC(=O)c2ccnc(C3CC3)c2)cc1-c1cnc(N2CC(C)(O)C2)c(C#N)c1 [Example 188, N-(5′-cyano-6′-(3-hydroxy-3-methylazetidin-1-yl)-2-methyl-[3,3′-bipyridin]-5-yl)-2-cyclopropyl-isonicotinamide] | 8.76 | 8.00
27 | Cc1ncc(NC(=O)c2ccnc(C3(C#N)CC3)c2)cc1-c1cnc(N2CC(C)(O)C2)c(C#N)c1 [Example 189, N-(5′-cyano-6′-(3-hydroxy-3-methylazetidin-1-yl)-2-methyl-[3,3′-bipyridin]-5-yl)-2-(1-cyanocyclopropyl) isonicotinamide] | 9.41 | 8.47
28 | Cc1ncc(NC(=O)c2cnnc(C3CC3)c2)cc1-c1cnc(N2CC(C)(O)C2)c(C#N)c1 [Example 190, N-(5′-cyano-6′-(3-hydroxy-3-methylazetidin-1-yl)-2-methyl-[3,3′-bipyridin]-5-yl)-6-cyclopropyl-pyridazine-4-carboxamide] | 7.54 | 6.75
